Experiments:
[1] = system: LDL receptor deficient (LDLR−/−) mice; assay: Serum triglyceride levels in LDLR−/− mouse model after 2 g/kg HPBCD; type: in vivo
Excerpt: LDL receptor deficient (LDLR^−/−) mice were divided into 6 Groups. Prior to the administration of 2 g/kg of HPBCD, Group 1 was fed with normal chow diet (NC) for 5 weeks and Group 2-Group 6 were fed with high-fat (42%), high-cholesterol (1.2%) Western diet (WD) for various durations up to 9 weeks. Experimental scheme and diet schedule is described in FIG. 1A. Mice of Group 1 were further categorized into 3 sub-Groups (e.g., Group 1.1, Group 1.2, and Group 1.3) according to the administration of HPBCD as shown in FIG. 1B. Blood samples were taken from the mouse models, after 5 weeks of feeding and at a certain period of time (e.g., 1 week, 2 weeks, 3 weeks, 4 weeks after 2 g/kg HPBCD treatment), for measurement of triglyceride levels in each model Group. […] (FIG. 2A).

volunteers [2] = assay: Triglyceride levels in volunteers after a single intravenous dose of HPBCD (FIG. 3A); type: in vivo, humans
Description: Twenty-nine volunteers were divided into five groups. Each group was administered an intravenous dose of 50 mg/kg, 250 mg/kg, 500 mg/kg, 1000 mg/kg or 1500 mg/kg of HPBCD as shown in FIG. 3A. Blood samples were taken immediately prior to injection to establish a baseline triglyceride concentration, and at 24 hours (D2) and 48 hours (D3) post injection for measurement of triglyceride levels. […] Overall, triglyceride levels of participants decreased, particularly evident in participants with higher baseline triglyceride concentrations.

volunteers [3] = assay: Separate placebo-controlled study: change in triglyceride levels from baseline in volunteers (FIG. 3B-3D); type: in vivo, humans; conditions: intravenous 500, 1000 or 1500 mg/kg
Description: In a separate study, volunteers were divided into four groups. Each group was administered an intravenous dose of placebo or an intravenous dose of 500 mg/kg, 1000 mg/kg or 1500 mg/kg of HPBCD as shown in FIG. 3B. Blood samples were taken immediately prior to injection to establish a baseline triglyceride concentration, and at 24 hours (left bar) and 48 hours (right bar) post injection. Triglyceride levels are presented as the median average percentage change from baseline. […] The data in FIG. 3B were divided into two groups for further analysis. Group 1 consisted of the portion of the cohort which had baseline triglyceride levels greater than 100 mg/dL. Group 2 had baseline triglyceride levels less than or equal to 100 mg/dL. The average percentage change of triglyceride levels from baseline of Group 1 and Group 2 is shown in FIG. 3C and FIG. 3D respectively. […] This is consistent with the marked reduction (˜30%) in triglyceride levels observed for the one participant in FIG. 3A with a baseline triglyceride level of approximately 425 mg/dL.

## CC(O)COC[C@H]1O[C@@H]2O[C@H]3[C@H](O)[C@@H](O)[C@@H](O[C@H]4[C@H](O)[C@@H](O)[C@@H](O[C@H]5[C@H](O)[C@@H](O)[C@@H](O[C@H]6[C@H](O)[C@@H](O)[C@@H](O[C@H]7[C@H](O)[C@@H](O)[C@@H](O[C@H]8[C@H](O)[C@@H](O)[C@@H](O[C@H]1[C@H](O)[C@H]2O)O[C@@H]8COCC(C)O)O[C@@H]7COCC(C)O)O[C@@H]6COCC(C)O)O[C@@H]5COCC(C)O)O[C@@H]4COCC(C)O)O[C@@H]3COCC(C)O (stereo partly drawn) [HPBCD, 2-hydroxypropyl-beta-cyclodextrin]
[1]; Western diet (WD), blood sampled 1-4 weeks after treatment, FIG. 2A
  triglyceride levels of WD-fed mice after the administration of HPBCD: decreased over time
[1]; normal chow diet (NC), FIG. 2B
  triglyceride level of NC-fed mice after the administration of HPBCD: decreased from 24 hours after the administration
Volunteers [2]; one participant in FIG. 3A with baseline triglyceride level of approximately 425 mg/dL
  reduction in triglyceride levels: ~30%
Volunteers [2]; volunteers, intravenous 50, 250, 500, 1000 or 1500 mg/kg, 24 h and 48 h post injection, any tested dose, FIG. 3A
  triglyceride levels following administration (safety): did not significantly increase
Volunteers [2]; volunteers, intravenous 50-1500 mg/kg, 24 h and 48 h post injection, particularly evident with higher baseline triglyceride
  triglyceride levels of participants overall: decreased
Volunteers [3]; 24 h and 48 h, FIG. 3C and 3D
  reduction in triglyceride levels, Group 1 (baseline >100 mg/dL) versus Group 2 (baseline ≤100 mg/dL): greater reduction in triglyceride levels was observed in participants in Group 1 than those in Group 2
Volunteers [3]; 24 h and 48 h post injection, any tested dose, FIG. 3B
  triglyceride levels, median average percentage change from baseline: did not increase
